Source: patent US20170305965A1, “Fab REGION-BINDING PEPTIDE” (KANEKA CORPORATION, priority 2014, published 2017)
pKd: −log10 of the molar value.

Key:
[1] = test system: IgG-Fab of anti-HER2 monoclonal antibody (Trastuzumab); test: Biacore 3000 surface plasmon resonance analysis of affinity of SpG variants for immobilized IgG-Fab; assay type: binding, human; conditions: for KA (affinity constant, KA=kon/koff) / koff / kon: Anti-HER2 antibody - Fab immobilized on CM5, peptide 0.1-0.8 μM, 25° C., pH 7.4, 1:1 binding model; for KA Vs. Wild: ratio of KA to that of GB2*-Wild.1d, Anti-HER2 antibody - Fab
Excerpt: A humanized monoclonal IgG product as a raw material was fragmented into a Fab fragment and a Fc fragment using papain, and only the Fab fragment was separated and purified. Hereinafter, a method for producing IgG-Fab derived from anti-HER2 monoclonal antibody (generic name: Trastuzumab) is described. In the present disclosure, when other IgG-Fab was used for evaluation, the fragment was basically prepared in a similar method.
Specifically, a humanized monoclonal IgG product (“HERCEPTIN” manufactured by CHUGAI PHARMACEUTICAL CO., LTD., in the case of anti-HER2 monoclonal antibody) was dissolved in a buffer for papain treatment (0.1 M AcOH—AcONa, 2 mM EDTA, 1 mM cysteine, pH 5.5), and agarose on which papain was immobilized (“Papain Agarose from papaya latex” manufactured by SIGMA) was added thereto. The mixture was incubated with stirring by a rotator at 37° C. for about 8 hours. The IgG-Fab was purified by recovering the IgG-Fab as a flow-through fraction in an affinity chromatography using KanCapA column (manufactured by GE Healthcare Bioscience) from the reaction mixture which contained both of a Fab fragment and a Fc fragment and which was separated from the agarose on which papain was immobilized. The obtained crude IgG-Fab solution was subjected to purification by gel filtration chromatography using Superdex 75 10/300 GL column to obtain IgG-Fab solution. In the chromatography, a standard buffer was used for equilibration and separation. Similarly to the above-described Example 1, AKTAprime plus system was used in the chromatography for protein purification.
The affinity of each of the SpG-β2* variant obtained in the above-described Example 1(2) for the IgG-Fab of anti-HER2 monoclonal antibody was evaluated using a biosensor Biacore 3000 (manufactured by GE Healthcare Bioscience) utilizing surface plasmon resonance. In the present Example, the IgG-Fab obtained in the above-described Example 2(1) was immobilized on a sensor tip, and each of the peptide was flown on the tip to detect the interaction between the two. The IgG-Fab was immobilized on a sensor tip CM5 by amine coupling method using N-hydroxysuccinimide (NHS) and N-ethyl-N′-(3-dimethylaminopropyl)carbodiimide hydrochloride (EDC), and ethanolamine was used for blocking. All of the sensor tip and reagents for immobilization was manufactured by GE Healthcare Bioscience. The IgG-Fab solution was diluted to about 10 times using a buffer for immobilization (10 mM AcOH—AcONa, pH 4.5), and the IgG-Fab was immobilized on the sensor tip in accordance with the protocol attached to the Biacore 3000. In addition, a reference cell as negative control was also prepared by activating another flow cell on the tip with EDC/NHS and then immobilizing human serum albumin (manufactured by Wako Pure Chemical Industries, Ltd.). Peptide solutions of each of the SpG-β2* variant having concentrations of […] were prepared using a running buffer (20 mM NaH2PO4—Na2HPO4, 150 mM NaCl, 0.005% P-20, pH 7.4). The peptide solution was added to the sensor tip in a flow rate of 10 μL/min for 4 minutes. Bonding response curves at the time of addition (association phase, for 4 minutes) and after the addition (dissociation phase, for 4 minutes) were sequentially obtained at a measurement temperature of 25° C. After each measurement, the added peptide remaining on the sensor tip was removed by flowing the running buffer for 5 minutes or more; and about 10 mM NaOH was added for wash between the measurements if required.
However, the concentration of a protein solution was adjusted to 0.8 μM, bonding response curves at the time of adding the solution (association phase, for 1 minute) and after the addition (dissociation phase, for 2 minutes) were obtained, and a fitting analysis was carried out using one concentration of the solution.

Fab region of IgG = conditions: cited from earlier work

Substance: GB2*-E15W.1d: SpG-β2* one residue variant with E15W, amino acid sequence SEQ ID NO: 23 (TTYKLVINGKTLKGWTTTKAVDAETAERAFRQYATDNGVEGMWTYDPATKTFTVTE; SpG Mutant)
- KA (affinity constant, KA=kon/koff) [1]: 1.08e+07 M⁻¹
- koff [1]: 0.011 s⁻¹
- kon [1]: 119000 s/M
- KA Vs. Wild [1]: 4.8

Substance: GB2*-E15Y.1d: SpG-β2* one residue variant with E15Y, amino acid sequence SEQ ID NO: 21 (TTYKLVINGKTLKGYTTTKAVDAETAERAFRQYATDNGVEGMWTYDPATKTFTVTE; SpG Mutant)
- KA (affinity constant, KA=kon/koff) [1]: 9.3e+06 M⁻¹
- koff [1]: 0.01 s⁻¹
- kon [1]: 92000 s/M
- KA Vs. Wild [1]: 4.0

Substance: GB2*-T02R.1d: SpG-β2* one residue variant with T02R, amino acid sequence SEQ ID NO: 19 (TRYKLVINGKTLKGETTTKAVDAETAERAFRQYATDNGVEGMWTYDPATKTFTVTE; SpG Mutant)
- KA (affinity constant, KA=kon/koff) [1]: 9.8e+06 M⁻¹
- koff [1]: 0.01 s⁻¹
- kon [1]: 98000 s/M
- KA Vs. Wild [1]: 4.3

Substance: GB2*-T02R/E15Y.1d: two residues variant of SpG-β2* with T02R and E15Y, SEQ ID NO: 27 (TRYKLVINGKTLKGYTTTKAVDAETAERAFRQYATDNGVEGMWTYDPATKTFTVTE; SpG Mutant)
- binding response (bonding response curve, FIG. 3) ([1]; protein solution 0.8 μM, raw bonding response curve compared under the same concentration): higher than those of GB2*-Wild.1d and GB2*-T02R.1d

Substance: GB2*-Wild.1d: SpG β2 domain variant having excellent thermal stability, SEQ ID NO: 3; comparative example before introducing the mutation (TTYKLVINGKTLKGETTTKAVDAETAERAFRQYATDNGVEGMWTYDPATKTFTVTE; SpG Mutant) [reference compound]
- KA (affinity constant, KA=kon/koff) [1]: 2.3e+06 M⁻¹
- koff [1]: 0.038 s⁻¹
- kon [1]: 88000 s/M
- difference between association constant of the Patent Document 2 variant and association constant shown in Table 2 ([1]; GB2*-Wild.1d (Table 2) versus variant of Patent Document 2): about 1.4 times

Substance: GB2-E15W.1d: E15W mutation introduced into wild SpG-β2 domain, SEQ ID NO: 25 (TTYKLVINGKTLKGWTTTKAVDAETAEKAFKQYANDNGVDGVWTYDDATKTFTVTE; SpG Mutant)
- association constant KA ([1]; fitting analysis using one concentration, 0.8 μM, association phase 1 minute, dissociation phase 2 minutes): 1.6e+06 M⁻¹

Substance: GB2-Wild.1d: wild β2 domain of Protein G, SEQ ID NO: 2 (TTYKLVINGKTLKGETTTKAVDAETAEKAFKQYANDNGVDGVWTYDDATKTFTVTE; Streptococcus sp. GX7809)
- pKd (Fab region of IgG; described in Table 1 of Patent Document 2, read-out: dissociation constant): 5.59
- association constant (inverse number of the dissociation constant of Patent Document 2) (Fab region of IgG; inverse of the dissociation constant in Table 1 of Patent Document 2): 400000 M⁻¹
